# Columns and labels:
# Test in all cases: relative viability (nuclei count vs DMSO), 5 days (fraction); higher = more cells survive
# [1] = test system: SK-LU-1
# In short: (§1)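 Dosing by pin tool came one day after lung cancer cell lines were seeded in 1536-well plates, using either one drug or a fixed anchor-drug dose plus five library-drug doses (not always all listed) in √10 steps. After 5 days, nuclei were counted on 4× images. Relative viability is treated-well nuclei count divided by vehicle-well nuclei count, and values are medians of duplicate plates.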
# [2] = test system: NCI-H23
# In short: as §1
# [3] = test system: H3255
# In short: as §1
# [4] = test system: NCI-H3122
# In short: as §1
# [5] = test system: NCI-H2126
# In short: as §1
# [6] = test system: ChaGo-K-1
# In short: as §1
# [7] = test system: PC-3 [JPC-3]
# In short: as §1
# [8] = test system: HOP-62
# In short: as §1
# [9] = test system: HARA
# In short: as §1
# [10] = test system: COR-L 105
# In short: as §1
# [11] = test system: NCI-H2228
# In short: as §1
# [12] = test system: NCI-H661
# In short: as §1
# [13] = test system: NCI-H596
# In short: as §1
# [14] = test system: NCI-H2405
# In short: as §1
# [15] = test system: 201T
# In short: as §1
# [16] = test system: NCI-H727
# In short: as §1
# [17] = test system: HCC-827
# In short: as §1
# [18] = test system: LCLC-103H
# In short: as §1
# [19] = test system: NCI-H650
# In short: as §1
# [20] = test system: LOU-NH91
# In short: as §1
# [21] = test system: EKVX
# In short: as §1
# [22] = test system: NCI-H1975
# In short: as §1
smiles,measurement,setting,value
CCNC(=O)c1noc(-c2cc(C(C)C)c(O)cc2O)c1-c1ccc(CN2CCOCC2)cc1 [Luminespib] + CS(=O)(=O)N1CCN(Cc2cc3nc(-c4cccc5[nH]ncc45)nc(N4CCOCC4)c3s2)CC1 [Pictilisib] (partner 1 µM),relative viability,[1]; first compound 0.002 µM,0.582
same,relative viability,[1]; first compound 0.006325 µM,0.403
same,relative viability,[1]; first compound 0.02 µM,0.243
same,relative viability,[1]; first compound 0.06325 µM,0.161
same,relative viability,[1]; first compound 0.2 µM,0.121
same,relative viability,[2]; first compound 0.002 µM,0.475
same,relative viability,[2]; first compound 0.006325 µM,0.486
same,relative viability,[2]; first compound 0.02 µM,0.374
same,relative viability,[2]; first compound 0.06325 µM,0.134
same,relative viability,[2]; first compound 0.2 µM,0.157
same,relative viability,[3]; first compound 0.002 µM,0.497
same,relative viability,[3]; first compound 0.006325 µM,0.474
same,relative viability,[3]; first compound 0.02 µM,0.31
same,relative viability,[3]; first compound 0.06325 µM,0.327
same,relative viability,[3]; first compound 0.2 µM,0.179
same,relative viability,[4]; first compound 0.002 µM,0.621
same,relative viability,[4]; first compound 0.006325 µM,0.621
same,relative viability,[4]; first compound 0.02 µM,0.368
same,relative viability,[4]; first compound 0.06325 µM,0.166
same,relative viability,[4]; first compound 0.2 µM,0.176
same,relative viability,[5]; first compound 0.002 µM,0.464
same,relative viability,[5]; first compound 0.006325 µM,0.503
same,relative viability,[5]; first compound 0.02 µM,0.399
same,relative viability,[5]; first compound 0.06325 µM,0.49
same,relative viability,[5]; first compound 0.2 µM,0.273
same,relative viability,[6]; first compound 0.002 µM,0.782
same,relative viability,[6]; first compound 0.02 µM,0.501
same,relative viability,[6]; first compound 0.06325 µM,0.345
same,relative viability,[6]; first compound 0.2 µM,0.362
same,relative viability,[7]; first compound 0.002 µM,0.756
same,relative viability,[7]; first compound 0.006325 µM,0.726
same,relative viability,[7]; first compound 0.02 µM,0.626
same,relative viability,[7]; first compound 0.06325 µM,0.578
same,relative viability,[7]; first compound 0.2 µM,0.286
same,relative viability,[8]; first compound 0.002 µM,0.678
same,relative viability,[8]; first compound 0.006325 µM,0.838
same,relative viability,[8]; first compound 0.02 µM,0.43
same,relative viability,[8]; first compound 0.06325 µM,0.164
same,relative viability,[8]; first compound 0.2 µM,0.0784
same,relative viability,[9]; first compound 0.002 µM,0.295
same,relative viability,[9]; first compound 0.006325 µM,0.396
same,relative viability,[9]; first compound 0.02 µM,0.174
same,relative viability,[9]; first compound 0.06325 µM,0.531
same,relative viability,[9]; first compound 0.2 µM,0.0744
same,relative viability,[10]; first compound 0.002 µM,0.386
same,relative viability,[10]; first compound 0.006325 µM,0.488
same,relative viability,[10]; first compound 0.02 µM,0.248
same,relative viability,[10]; first compound 0.06325 µM,0.223
same,relative viability,[10]; first compound 0.2 µM,0.254
same,relative viability,[11]; first compound 0.002 µM,0.496
same,relative viability,[11]; first compound 0.006325 µM,0.373
same,relative viability,[11]; first compound 0.02 µM,0.122
same,relative viability,[11]; first compound 0.06325 µM,0.168
same,relative viability,[11]; first compound 0.2 µM,0.108
same,relative viability,[12]; first compound 0.002 µM,0.357
same,relative viability,[12]; first compound 0.006325 µM,0.344
same,relative viability,[12]; first compound 0.02 µM,0.287
same,relative viability,[12]; first compound 0.06325 µM,0.276
same,relative viability,[12]; first compound 0.2 µM,0.223
same,relative viability,[13]; first compound 0.002 µM,0.343
same,relative viability,[13]; first compound 0.006325 µM,0.404
same,relative viability,[13]; first compound 0.06325 µM,0.275
same,relative viability,[13]; first compound 0.2 µM,0.267
same,relative viability,[14]; first compound 0.002 µM,0.514
same,relative viability,[14]; first compound 0.006325 µM,0.298
same,relative viability,[14]; first compound 0.02 µM,0.301
same,relative viability,[14]; first compound 0.06325 µM,0.147
same,relative viability,[14]; first compound 0.2 µM,0.142
same,relative viability,[15]; first compound 0.002 µM,0.647
same,relative viability,[15]; first compound 0.006325 µM,0.693
same,relative viability,[15]; first compound 0.02 µM,0.649
same,relative viability,[15]; first compound 0.06325 µM,0.721
same,relative viability,[15]; first compound 0.2 µM,0.58
same,relative viability,[16]; first compound 0.002 µM,0.427
same,relative viability,[16]; first compound 0.006325 µM,0.399
same,relative viability,[16]; first compound 0.02 µM,0.264
same,relative viability,[16]; first compound 0.06325 µM,0.123
same,relative viability,[16]; first compound 0.2 µM,0.166
same,relative viability,[17]; first compound 0.002 µM,0.949
same,relative viability,[17]; first compound 0.006325 µM,1.02
same,relative viability,[17]; first compound 0.02 µM,0.802
same,relative viability,[17]; first compound 0.06325 µM,0.555
same,relative viability,[17]; first compound 0.2 µM,0.551
same,relative viability,[18]; first compound 0.002 µM,0.629
same,relative viability,[18]; first compound 0.006325 µM,0.5
same,relative viability,[18]; first compound 0.02 µM,0.466
same,relative viability,[18]; first compound 0.06325 µM,0.651
same,relative viability,[18]; first compound 0.2 µM,0.271
same,relative viability,[19]; first compound 0.002 µM,1.09
same,relative viability,[19]; first compound 0.006325 µM,0.851
same,relative viability,[19]; first compound 0.02 µM,0.477
same,relative viability,[19]; first compound 0.06325 µM,0.209
same,relative viability,[19]; first compound 0.2 µM,0.127
same,relative viability,[20]; first compound 0.002 µM,0.53
same,relative viability,[20]; first compound 0.006325 µM,0.566
same,relative viability,[20]; first compound 0.02 µM,0.469
same,relative viability,[20]; first compound 0.06325 µM,0.367
same,relative viability,[20]; first compound 0.2 µM,0.358
same,relative viability,[21]; first compound 0.002 µM,0.392
same,relative viability,[21]; first compound 0.006325 µM,0.46
same,relative viability,[21]; first compound 0.02 µM,0.229
same,relative viability,[21]; first compound 0.06325 µM,0.226
same,relative viability,[21]; first compound 0.2 µM,0.0934
same,relative viability,[22]; first compound 0.002 µM,0.26
same,relative viability,[22]; first compound 0.006325 µM,0.257
same,relative viability,[22]; first compound 0.02 µM,0.135
same,relative viability,[22]; first compound 0.06325 µM,0.115
same,relative viability,[22]; first compound 0.2 µM,0.106

# — the supplement of paper PMC10307832
